Laboratory results: patent US12692238B2, “Substituted pyridazinone herbicides” (FMC CORPORATION, priority 2020, dated 2026)

What was measured:
Assay type in all cases: in vivo
[1] = tested on: sedge, umbrella (small-flower umbrella sedge, Cyperus difformis); experiment: Test B flooded paddy test, sedge, umbrella; settings: Cyperus difformis; 250 g ai/ha, Flood; visually evaluated after 10 to 14 days; read-out: Plant response rating, Sedge, Umbrella (0 to 100 scale where 0 is no effect and 100 is complete control)
How it was run: (§1)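 Greenhouse paddy assay in which test compounds were dosed into floodwater standing 3 cm above the soil. Plants were at the 2-leaf stage, the water level was kept constant, and effects were rated visually 10–14 days later on a 0–100 scale relative to controls.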

[2] = tested on: redroot pigweed (Amaranthus retroflexus); experiment: Test A preemergence, redroot pigweed; settings: 0 to 100 scale, 10 days
How it was run: (§2)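 Greenhouse pot test in loam/sand; preemergence = directed soil spray after planting, postemergence = foliar spray at 1–2 leaf stage (2–10 cm). Formulation: non-phytotoxic solvent mix plus surfactant. Visual injury vs untreated, 0–100 scale, day 10.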

[3] = tested on: barnyardgrass (Echinochloa crus-galli); experiment: Test A postemergence, barnyardgrass; settings: Postemergence, 0 to 100 scale, 10 days
How it was run: as §2

rice (Oryza sativa) = experiment: Test B flooded paddy test, rice; settings: Oryza sativa; 250 g ai/ha, Flood; visually evaluated after 10 to 14 days; read-out: Plant response rating, Rice (0 to 100 scale where 0 is no effect and 100 is complete control)
How it was run: as §1

[4] = tested on: blackgrass (Alopecurus myosuroides); experiment: Test A postemergence, blackgrass; settings: Alopecurus myosuroides, post-emergence, 240 h, Postemergence, 0 to 100 scale, 10 days, read-out: Plant response rating, Blackgrass; for pest or weed control at 31 g/ha: 31 g ai/ha; for pest or weed control at 125 g/ha: 125 g ai/ha
How it was run: as §2

[5] = tested on: ryegrass, Italian (Italian ryegrass, Lolium multiflorum); experiment: Test A postemergence, ryegrass, Italian; settings: Lolium multiflorum, post-emergence, 240 h, 10 days, read-out: Plant response rating, Ryegrass, Italian; for pest or weed control at 31 g/ha: 31 g ai/ha, postemergence, 0 to 100 scale (0 no effect, 100 complete control); for pest or weed control at 125 g/ha: Postemergence, 125 g ai/ha, 0 to 100 scale
How it was run: as §2

kochia (Bassia scoparia) [6] = experiment: Test A preemergence, kochia; settings: Bassia scoparia, pre-emergence, 240 h, 0 to 100 scale, 10 days, read-out: Plant response rating, Kochia; for pest or weed control at 31 g/ha: 31 g ai/ha; for pest or weed control at 125 g/ha: 125 g ai/ha
How it was run: as §2

[7] = tested on: redroot pigweed (Amaranthus retroflexus); experiment: Test A postemergence, redroot pigweed; settings: 10 days
How it was run: as §2

[8] = tested on: ducksalad (Heteranthera limosa); experiment: Test B flooded paddy test, ducksalad; settings: Heteranthera limosa; 250 g ai/ha, Flood; visually evaluated after 10 to 14 days; read-out: Plant response rating, Ducksalad (0 to 100 scale where 0 is no effect and 100 is complete control)
How it was run: as §1

[9] = tested on: foxtail, giant (giant foxtail, Setaria faberi); experiment: Test A postemergence, foxtail, giant; settings: Setaria faberi, post-emergence, 240 h, Postemergence, 0 to 100 scale, 10 days, read-out: Plant response rating, Foxtail, Giant; for pest or weed control at 31 g/ha: 31 g ai/ha; for pest or weed control at 125 g/ha: 125 g ai/ha
How it was run: as §2

[10] = tested on: ragweed (common ragweed, Ambrosia artemisiifolia); experiment: Test A preemergence, ragweed; settings: Ambrosia artemisiifolia, pre-emergence, 240 h, 0 to 100 scale, 10 days, read-out: Plant response rating, Ragweed; for pest or weed control at 31 g/ha: 31 g ai/ha; for pest or weed control at 125 g/ha: 125 g ai/ha
How it was run: as §2

[11] = tested on: wheat (Triticum aestivum); experiment: Test A postemergence, wheat; settings: Triticum aestivum, post-emergence, 240 h, 10 days, read-out: Plant response rating, Wheat; for plant injury at 31 g/ha: 31 g ai/ha, postemergence, 0 to 100 scale (0 no effect, 100 complete control); for plant injury at 125 g/ha: Postemergence, 125 g ai/ha, 0 to 100 scale
How it was run: as §2

[12] = tested on: ryegrass, Italian (Italian ryegrass, Lolium multiflorum); experiment: Test A preemergence, ryegrass, Italian; settings: Lolium multiflorum, pre-emergence, 240 h, 0 to 100 scale, 10 days, read-out: Plant response rating, Ryegrass, Italian; for pest or weed control at 31 g/ha: 31 g ai/ha; for pest or weed control at 125 g/ha: 125 g ai/ha
How it was run: as §2

[13] = tested on: ragweed (common ragweed, Ambrosia artemisiifolia); experiment: Test A postemergence, ragweed; settings: Ambrosia artemisiifolia, post-emergence, 240 h, 10 days, read-out: Plant response rating, Ragweed; for pest or weed control at 31 g/ha: 31 g ai/ha, postemergence, 0 to 100 scale (0 no effect, 100 complete control); for pest or weed control at 125 g/ha: Postemergence, 125 g ai/ha, 0 to 100 scale
How it was run: as §2

[14] = tested on: foxtail, giant (giant foxtail, Setaria faberi); experiment: Test A preemergence, foxtail, giant; settings: Setaria faberi, pre-emergence, 240 h, 0 to 100 scale, 10 days, read-out: Plant response rating, Foxtail, Giant; for pest or weed control at 31 g/ha: 31 g ai/ha; for pest or weed control at 125 g/ha: 125 g ai/ha
How it was run: as §2

kochia (Bassia scoparia) [15] = experiment: Test A postemergence, kochia; settings: Bassia scoparia, post-emergence, 240 h, 10 days, read-out: Plant response rating, Kochia; for pest or weed control at 31 g/ha: 31 g ai/ha, postemergence, 0 to 100 scale (0 no effect, 100 complete control); for pest or weed control at 125 g/ha: Postemergence, 125 g ai/ha, 0 to 100 scale
How it was run: as §2

[16] = 31 g ai/ha, postemergence, 0 to 100 scale (0 no effect, 100 complete control)
[17] = Postemergence, 125 g ai/ha, 0 to 100 scale

Compound | pest or weed control at 250 g/ha [1] [%] | Plant response rating, Pigweed, Redroot ([2]; 31 g ai/ha) | Plant response rating, Pigweed, Redroot ([2]; 125 g ai/ha) | Plant response rating, Barnyardgrass ([3]; 31 g ai/ha) | Plant response rating, Barnyardgrass ([3]; 125 g ai/ha) | plant injury at 250 g/ha (rice (Oryza sativa)) [%] | pest or weed control at 31 g/ha [4] [%] | pest or weed control at 125 g/ha [4] [%] | pest or weed control at 31 g/ha [5] [%] | pest or weed control at 125 g/ha [5] [%] | pest or weed control at 31 g/ha (kochia (Bassia scoparia) [6]) [%] | pest or weed control at 125 g/ha (kochia (Bassia scoparia) [6]) [%] | Plant response rating, Pigweed, Redroot [7, 16] | Plant response rating, Pigweed, Redroot [7, 17] | pest or weed control at 250 g/ha [8] [%] | pest or weed control at 31 g/ha [9] [%] | pest or weed control at 125 g/ha [9] [%] | plant injury at 31 g/ha [11] [%] | plant injury at 125 g/ha [11] [%] | pest or weed control at 31 g/ha [12] [%] | other results
CC(=O)OCOc1c(C)nn(C)c(=O)c1-c1c(Br)sc2ccc(F)cc12 [Compound 2, 5-[(acetyloxy)methoxy]-4-(2-bromo-5-fluorobenzo[b]thien-3-yl)-2,6-dimethyl-3(2H)-pyridazinone] | 45 | 90 | 100 | 50 | 60 | 0 | 30 | 30 | 80 | 100 | 20 | 50 | 80 | 90 | 20 | 50 | 90 | 0 | 40 | 70 | pest or weed control at 31 g/ha [10]: 70%; pest or weed control at 125 g/ha [10]: 90%; pest or weed control at 125 g/ha [12]: 100%; pest or weed control at 31 g/ha [13]: 70%; pest or weed control at 125 g/ha [13]: 100%; pest or weed control at 31 g/ha [14]: 30%; pest or weed control at 125 g/ha [14]: 60%; pest or weed control at 31 g/ha (kochia (Bassia scoparia) [15]): 70%; pest or weed control at 125 g/ha (kochia (Bassia scoparia) [15]): 80%
CC(=O)OCOc1c(Cl)nn(C)c(=O)c1-c1c(C)ccc2ccc(C)cc12 [Compound 3, 5-[(Acetyloxy)methoxy]-6-chloro-4-(2,7-dimethyl-1-naphthalenyl)-2-methyl-3(2H)-pyridazinone] | 98 | 100 | 100 | 60 | 90 | 0 | 10 | 30 | 80 | 100 | 10 | 90 | 100 | 100 | 95 | 80 | 90 | 0 | 20 | 20 | pest or weed control at 31 g/ha [10]: 90%; pest or weed control at 125 g/ha [10]: 90%; pest or weed control at 125 g/ha [12]: 100%; pest or weed control at 31 g/ha [13]: 90%; pest or weed control at 125 g/ha [13]: 100%; pest or weed control at 31 g/ha [14]: 10%; pest or weed control at 125 g/ha [14]: 100%; pest or weed control at 31 g/ha (kochia (Bassia scoparia) [15]): 60%; pest or weed control at 125 g/ha (kochia (Bassia scoparia) [15]): 80%
CC(=O)OCOc1c(Cl)nn(C)c(=O)c1-c1c2ccccc2cc2ccccc12 [Compound 10, 5-[(acetyloxy)methoxy]-4-(9-anthracenyl)-6-chloro-2-methyl-3(2H)-pyridazinone] | 95 | 100 | 100 | 20 | 10 | 0 | 30 | 0 | 0 | 0 | 0 | 0 | 100 | 100 | 95 | 10 | 50 | 0 | 0 | 0 | pest or weed control at 31 g/ha [10]: 40%; pest or weed control at 125 g/ha [10]: 40%; pest or weed control at 125 g/ha [12]: 10%; pest or weed control at 31 g/ha [13]: 100%; pest or weed control at 125 g/ha [13]: 100%; pest or weed control at 31 g/ha [14]: 0%; pest or weed control at 125 g/ha [14]: 20%; pest or weed control at 31 g/ha (kochia (Bassia scoparia) [15]): 0%; pest or weed control at 125 g/ha (kochia (Bassia scoparia) [15]): 10%
CC(=O)OCOc1c(Cl)nn(C)c(=O)c1-c1c2ccccc2c(Cl)c2ccccc12 [Compound 11, 5-[(acetyloxy)methoxy]-6-chloro-4-(10-chloro-9-anthracenyl)-2-methyl-3(2H)-pyridazinone] | 95 | 100 | 100 | 20 | 30 | 0 | 40 | 10 | 10 | 70 | 0 | 10 | 100 | 100 | 80 | 30 | 80 | 0 | 0 | 0 | pest or weed control at 125 g/ha [12]: 30%; pest or weed control at 31 g/ha [13]: 100%; pest or weed control at 125 g/ha [13]: 100%; pest or weed control at 31 g/ha [14]: 10%; pest or weed control at 125 g/ha [14]: 60%; pest or weed control at 31 g/ha (kochia (Bassia scoparia) [15]): 0%; pest or weed control at 125 g/ha (kochia (Bassia scoparia) [15]): 50%
